15 molecules from patent US12258326B2, “Pyrazole derivative and harmful organism-controlling agent” (KUMIAI CHEMICAL INDUSTRY CO., LTD., priority 2018, dated 2025) can be followed below.

Molecules are shown by their SMILES. Where two headings read alike, the source gives them in different places.

Format in all cases: in vivo
The test system of one experiment is Nilaparvata lugens. Kind of experiment: Nilaparvata lugens killing activity test. To be noted: 144 h, active ingredient 500 ppm, dipped paddy, second instar larvae, after 6 days, 25° C., read-out: insect mortality. As for the experimental part: The water-dispersible powder prepared in accordance with Formulation example 2 was diluted in water so that the concentration of the active ingredient was 500 ppm. Paddy was dipped in this liquid agent, and then put into a plastic cup. Ten second instar larvae of Nilaparvata lugens were released in the plastic cup, and the cup was lidded, and placed in a thermostatic chamber at 25° C. After 6 days, the number of live insects was counted, and the insect mortality was determined by the calculation formula of numerical formula 1. The test was conducted singly.

In the next experiment the test system is Plutella xylostella. Kind of experiment: Plutella xylostella killing test. The note with it: 144 h, active ingredient 500 ppm, dipped cabbage leaf, second instar larvae, after 6 days, 25° C., read-out: insect mortality. As for the experimental part: (§1) The water-dispersible powder prepared in accordance with Formulation example 2 was diluted in water so that the concentration of the active ingredient was 500 ppm. A cabbage leaf was dipped in this liquid agent, and air-dried, and then put into a plastic cup. Ten second instar larvae of Plutella xylostella were released in the cup, and the cup was lidded. Then, the cup was placed in a thermostatic chamber at 25° C., and the number of dead insects was examined after 6 days, and the insect mortality was determined by the calculation formula of numerical formula 1. The test was conducted singly.

In another experiment the test system is Aphis gossypii. The experiment is described as follows: Aphis gossypii killing test. To be noted: read-out: insect mortality. The protocol:
The water-dispersible powder prepared in accordance with Formulation example 2 was diluted in water so that the concentration of the active ingredient was 500 ppm. A nursery plant of cucumber preliminarily inoculated with nymphs of Aphis gossypii was dipped in this liquid agent, and air-dried. The nursery plant of cucumber after the treatment was placed in a thermostatic chamber at 25° C., and the number of live insects was counted after 3 days, and the insect mortality was determined by the calculation formula of numerical formula 1. The test was conducted singly.

For another experiment, the system named is Helicoverpa armigera. The experiment is described as follows: Helicoverpa armigera killing test. To be noted: 144 h, active ingredient 500 ppm, dipped cabbage leaf, newly hatched larvae, after 6 days, 25° C., read-out: insect mortality. The protocol:
as §1, with “Five newly hatched” for “Ten second instar”, “Helicoverpa armigera” for “Plutella xylostella”, “in duplicate.” for “singly.”

Where [1] appears, read: active ingredient 500 ppm, dipped cucumber nursery plant inoculated with nymphs, after 3 days, 25° C.

What is called mortality is the share of the test organisms that died. As for `Cc1ccccc1-c1cn(-c2cccnc2)nc1C(N)=O` [A-0020, 1-(pyridine-3-yl)-4-(2-methylphenyl)-1H-pyrazole-3-carboxamide], the mortality at 500 ppm with Nilaparvata lugens, in the experiment with Plutella xylostella, with Aphis gossypii (setting [1]) and in the experiment with Helicoverpa armigera was at least 50% each time.

In the case of `NC(=O)c1nn(-c2cccnc2)cc1-c1ccccc1C(F)(F)F` [A-0044, 1-(pyridine-3-yl)-4-[2-(trifluoromethyl)phenyl]-1H-pyrazole-3-carboxamide], the mortality at 500 ppm in the experiment with Aphis gossypii (setting [1]) was at least 50%.

As to `COc1cc(Cl)ccc1-c1cn(-c2cccnc2)nc1C(N)=O` [A-0634, 4-(4-chloro-2-methoxyphenyl)-1-(pyridine-3-yl)-1H-pyrazole-3-carboxamide], the mortality at 500 ppm in the experiment with Nilaparvata lugens, in the experiment with Plutella xylostella, with Aphis gossypii (setting [1]) and with Helicoverpa armigera was at least 50% in each case.

Turning to `COCC(=O)NC(=O)c1nn(-c2cccnc2)cc1-c1ccccc1C` [A-4808, N-(2-methoxyacetyl)-1-(pyridine-3-yl)-4-(2-methylphenyl)-1H-pyrazole-3-carboxamide], the mortality at 500 ppm in the experiment with Nilaparvata lugens and in the experiment with Aphis gossypii (setting [1]) was at least 50% throughout.

In the case of `Cc1ccccc1-c1cn(-c2cccnc2)nc1C(N)=S` [A-8646, 1-(pyridine-3-yl)-4-(2-methylphenyl)-1H-pyrazole-3-carbothioamide], the mortality at 500 ppm with Nilaparvata lugens and in the experiment on Plutella xylostella was at least 50% each time.

Take `Cc1ccccc1-c1cn(-c2ccc[n+]([O-])c2)nc1C(N)=O` [A-8862, 3-[3-carbamoyl-4-(2-methylphenyl)-1H-pyrazole-1-yl]pyridine-1-oxide]: the mortality at 500 ppm in the experiment with Nilaparvata lugens and in the experiment with Aphis gossypii (setting [1]) was at least 50% in each case.

For `Cc1cccnc1-c1cn(-c2cccnc2)nc1C(N)=O` [B-0027, 4-(3-methylpyridine-2-yl)-1-(pyridine-3-yl)-1H-pyrazole-3-carboxamide], the mortality at 500 ppm with Nilaparvata lugens, in the experiment on Plutella xylostella, with Aphis gossypii (setting [1]) and in the experiment with Helicoverpa armigera was at least 50% in each case.

Consider `Cc1ccncc1-c1cn(-c2cccnc2)nc1C(N)=O` [B-0100, 4-(4-methylpyridine-3-yl)-1-(pyridine-3-yl)-1H-pyrazole-3-carboxamide], for which the mortality at 500 ppm with Nilaparvata lugens, with Plutella xylostella and in the experiment on Helicoverpa armigera was at least 50% in each case.

Turning to `CCOC(=O)c1nn(-c2cccnc2)cc1-c1ccccc1C(F)(F)F` [C-0044, Ethyl 1-(pyridine-3-yl)-4-(2-(trifluoromethyl)phenyl)-1H-pyrazole-3-carboxylate], the mortality at 500 ppm in the experiment with Nilaparvata lugens and in the experiment on Aphis gossypii (setting [1]) was at least 50% throughout.

Regarding `CCOC(=O)c1nn(-c2cccnc2)cc1-c1ccc(Cl)cc1OC` [C-0634, Ethyl 4-(4-chloro-2-methoxyphenyl)-1-(pyridine-3-yl)-1H-pyrazole-3-carboxylate], the mortality at 500 ppm with Plutella xylostella is at least 50%.

Consider `CCOC(=O)c1nn(-c2cccnc2)cc1I` [D-0003, ethyl 4-iodo-1-(pyridine-3-yl)-1H-pyrazole-3-carboxylate], for which the mortality at 500 ppm in the experiment with Aphis gossypii (setting [1]) and with Helicoverpa armigera was at least 50% in each case.

As to `CCOC(=O)c1nn(-c2cccnc2)cc1OS(=O)(=O)C(F)(F)C(F)(F)C(F)(F)C(F)(F)F` [D-0008, Ethyl 4-{[(nonafluorobutyl)sulfonyl]oxy}-1-(pyridine-3-yl)-1H-pyrazole-3-carboxylate], the mortality at 500 ppm in the experiment with Aphis gossypii (in Cucumis sativus) was at least 50%.

Take `CCOC(=O)c1nn(-c2cccnc2)cc1-c1ncccc1C` [D-0035, Ethyl 4-(3-methylpyridine-2-yl)-1-(pyridine-3-yl)-1H-pyrazole-3-carboxylate]: the mortality at 500 ppm with Nilaparvata lugens, in the experiment on Plutella xylostella, with Aphis gossypii (setting [1]) and in the experiment on Helicoverpa armigera was at least 50% each time.

Take `CCOC(=O)c1nn(-c2cccnc2)cc1-c1cnccc1C` [D-0108, Ethyl 4-(4-methylpyridine-3-yl)-1-(pyridine-3-yl)-1H-pyrazole-3-carboxylate]: the mortality at 500 ppm in the experiment on Plutella xylostella, in the experiment with Aphis gossypii (setting [1]) and in the experiment with Helicoverpa armigera was at least 50% throughout.

Turning to `Cc1ccncc1-c1cn(-c2cccnc2)nc1C(=O)O` [F-0108, 4-(4-methylpyridine-3-yl)-1-(pyridine-3-yl)-1H-pyrazole-3-carboxylic acid], the mortality at 500 ppm in the experiment with Plutella xylostella and with Helicoverpa armigera was at least 50% each time.
